Data published in PMC8068361, “Design and Synthesis of a Novel PLK1 Inhibitor Scaffold Using a Hybridized 3D-QSAR Model” (International Journal of Molecular Sciences, 2021).
Where two headings read alike, the source gives them in different places. Blank lines part the entries; values can stand above or below the compound they belong to.

Legend:
PLK2 = target: T1, PLK2 (Homo sapiens, UniProt Q9NYY3); assay: Kinase panel screen (Kinase HotSpot), single dose 10 µM: PLK2; format: biochemical
T1 construct: purchased Reaction Biology Corp
T1 sequence (Q9NYY3 whole entry): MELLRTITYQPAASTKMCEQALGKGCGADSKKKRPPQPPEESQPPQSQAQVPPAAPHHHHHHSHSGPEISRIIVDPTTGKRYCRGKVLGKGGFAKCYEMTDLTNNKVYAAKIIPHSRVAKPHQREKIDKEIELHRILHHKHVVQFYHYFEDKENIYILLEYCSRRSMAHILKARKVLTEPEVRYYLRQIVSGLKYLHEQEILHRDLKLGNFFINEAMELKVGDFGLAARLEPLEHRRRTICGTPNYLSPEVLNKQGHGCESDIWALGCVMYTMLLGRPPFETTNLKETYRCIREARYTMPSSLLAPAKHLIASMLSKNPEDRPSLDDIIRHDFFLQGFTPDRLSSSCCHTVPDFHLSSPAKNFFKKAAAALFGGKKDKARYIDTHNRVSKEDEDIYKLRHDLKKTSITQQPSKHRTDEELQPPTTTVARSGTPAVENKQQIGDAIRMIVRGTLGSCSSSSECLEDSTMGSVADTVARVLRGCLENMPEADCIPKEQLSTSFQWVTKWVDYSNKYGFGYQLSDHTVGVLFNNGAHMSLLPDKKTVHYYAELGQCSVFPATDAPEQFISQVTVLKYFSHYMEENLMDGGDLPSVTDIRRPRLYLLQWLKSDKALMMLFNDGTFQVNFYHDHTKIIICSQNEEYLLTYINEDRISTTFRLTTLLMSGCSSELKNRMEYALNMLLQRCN
Description: (§1) Assay protocol: In a final reaction volume of 25 μL, substrate[Casein], 1 μM, ATP 10 μM, PLK1(h) (5–10 mU) is incubated with 25 mM Tris pH 7.5, 0.02 mM EGTA, 0.66 mg/mL myelin basic protein, 10 mM Mg acetate, and [^33P-ATP] (specific activity approx. 500 cpm/pmol, concentration as required). The reaction is initiated by addition of the Mg-ATP mix. After incubation for 40 min at room temperature, the reaction is stopped by addition of 5 μL of a 3% phosphoric acid solution. […] The 30 selected protein kinases were ABL1, AKT1, ALK, Aurora A, AXL, AXL (R499C), BRAF (V599E), BTK, c-MER, c-MET, c-Src, CAMKK1, CDK1/cyclin A, EGFR, ERK1, FGFR3, FYN, IGF1R, JAK3, KDR/VEGFR2, LCK, LYN, MEK1, PKA, PLK1, PLK2, PLK3, PLK4/SAK, SYK, and TYRO3/SKY4.

PLK1 [1] = target: T2, PLK1 (Homo sapiens, UniProt P53350); set-up: method as in ref 18 (a number printed in a supplementary file, which may have a reference list of its own: not looked up in the article's list); conditions: Table S1, Plk1, cited from earlier work; for Activity pIC50: pIC50 = −log IC50
T2 construct: purchased Reaction Biology Corp
T2 sequence (P53350 whole entry): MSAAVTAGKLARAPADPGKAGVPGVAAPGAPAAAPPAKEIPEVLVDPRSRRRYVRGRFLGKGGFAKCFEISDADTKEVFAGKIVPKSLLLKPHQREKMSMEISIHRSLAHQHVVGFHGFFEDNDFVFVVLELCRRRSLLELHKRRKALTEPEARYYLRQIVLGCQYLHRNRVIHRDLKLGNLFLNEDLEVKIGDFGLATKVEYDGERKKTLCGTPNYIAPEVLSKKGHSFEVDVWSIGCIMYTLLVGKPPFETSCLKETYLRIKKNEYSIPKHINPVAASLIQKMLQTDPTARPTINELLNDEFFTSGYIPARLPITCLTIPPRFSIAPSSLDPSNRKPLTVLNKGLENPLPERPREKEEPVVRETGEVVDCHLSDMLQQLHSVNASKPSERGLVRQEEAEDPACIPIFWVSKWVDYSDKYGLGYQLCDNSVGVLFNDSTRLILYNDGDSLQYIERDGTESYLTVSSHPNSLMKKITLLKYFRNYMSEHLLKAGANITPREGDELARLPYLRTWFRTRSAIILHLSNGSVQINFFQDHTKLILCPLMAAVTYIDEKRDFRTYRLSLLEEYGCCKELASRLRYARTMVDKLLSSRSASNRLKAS

PLK3 = target: T3, PLK3 (Homo sapiens, UniProt Q9H4B4); assay: Kinase panel screen (Kinase HotSpot), single dose 10 µM: PLK3; format: biochemical
T3 construct: purchased Reaction Biology Corp
T3 sequence (Q9H4B4 whole entry): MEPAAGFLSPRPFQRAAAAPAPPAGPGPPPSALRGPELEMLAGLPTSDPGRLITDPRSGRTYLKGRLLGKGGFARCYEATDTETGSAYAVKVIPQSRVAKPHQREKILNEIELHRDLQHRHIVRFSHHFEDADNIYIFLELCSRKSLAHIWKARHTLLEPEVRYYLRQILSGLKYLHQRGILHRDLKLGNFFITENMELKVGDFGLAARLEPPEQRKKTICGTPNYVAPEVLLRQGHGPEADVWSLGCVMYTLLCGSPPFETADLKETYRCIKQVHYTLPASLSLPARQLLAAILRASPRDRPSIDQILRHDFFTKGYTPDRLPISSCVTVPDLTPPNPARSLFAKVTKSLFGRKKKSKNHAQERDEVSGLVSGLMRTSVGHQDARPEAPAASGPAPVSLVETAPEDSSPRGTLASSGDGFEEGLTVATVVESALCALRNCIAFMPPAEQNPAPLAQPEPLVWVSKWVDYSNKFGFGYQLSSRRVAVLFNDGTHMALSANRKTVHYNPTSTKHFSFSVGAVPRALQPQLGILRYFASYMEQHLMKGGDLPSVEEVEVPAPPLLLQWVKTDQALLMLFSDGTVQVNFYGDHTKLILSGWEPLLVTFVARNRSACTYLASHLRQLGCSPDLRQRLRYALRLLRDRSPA
Description: as §1

other protein kinases = assay: Kinase panel screen (Kinase HotSpot), single dose 10 µM: other kinases of the 30-kinase panel; format: biochemical
Description: as §1

PLK1 [2] = target: T2, PLK1; assay: Kinase panel screen (Kinase HotSpot), single dose 10 µM: PLK1; format: biochemical; conditions: duplicate, read-out: inhibitory activity against PLK1
Description: as §1

PLK1(h) = target: T4, PLK1(h) (Homo sapiens, UniProt P53350); assay: PLK1 kinase IC50, Reaction Biology IC50 Profiler Express, 33P-ATP radiometric; format: biochemical; conditions: enzymatic; ATP 10 μM, casein substrate
T4 construct: purchased Reaction Biology Corp
T4 sequence (P53350 whole entry): as the sequence (P53350 whole entry) above

PLK1 [3] = target: T2, PLK1; set-up: method as in ref 17 (a number printed in a supplementary file, which may have a reference list of its own: not looked up in the article's list); conditions: Table S2, Plk1, cited from earlier work
PLK1 [4] = target: T2, PLK1; conditions: in words; cited from earlier work

activity against PLK2 (PLK2): no significant activity
activity against PLK3 (PLK3): no significant activity
activity against other protein kinases (other protein kinases): no significant activity
inhibition at 10 µM (PLK1 [2]): 97%
IC50 (PLK1(h)): 0.219 µM
SMILES: NC(=O)c1nn(-c2ccnc(Nc3ccccc3)c2)cc1OCc1ccc(CO)cc1Cl [Compound 15, 4-((2-chloro-4-(hydroxymethyl)benzyl)oxy)-1-(2-(phenylamino)pyridin-4-yl)-1H-pyrazole-3-carboxamide]
IC50 (PLK1 [1]): 0.028 µM
Activity pIC50 (PLK1 [1]): 7.5528

SMILES: CCOC(=O)c1nn(-c2ccnc(F)c2)cc1O [compound 3]
IC50 (PLK1 [1]): 0.43 µM
Activity pIC50 (PLK1 [1]): 6.3665

IC50 (PLK1(h)): 1.31 µM
SMILES: COc1ccccc1Nc1cc(-n2cc(OCc3ccccc3C(F)(F)F)c(C(N)=O)n2)ccn1 [Compound 14b]

IC50 (PLK1(h)): > 10 µM
SMILES: NC(=O)c1nn(-c2ccnc(N[C@H]3CCNC3)c2)cc1OCc1ccccc1 [Compound 10a]

IC50 (PLK1(h)): > 10 µM
SMILES: NC(=O)c1nn(-c2ccnc(NC3CCOCC3)c2)cc1OCc1ccccc1 [Compound 8a]

IC50 (PLK1(h)): 0.312 µM
SMILES: COc1ccccc1Nc1cc(-n2cc(OCc3ccc(CO)cc3Cl)c(C(N)=O)n2)ccn1 [Compound 17, 4-((2-chloro-4-(hydroxymethyl)benzyl)oxy)-1-(2-((2-methoxyphenyl)amino)pyridin-4-yl)-1H-pyrazole-3-carboxamide]
IC50 (PLK1 [1]): 0.025 µM
Activity pIC50 (PLK1 [1]): 7.6021

IC50 (PLK1(h)): 1.02 µM
SMILES: COc1ccccc1Nc1cc(-n2cc(OCc3ccccc3)c(C(N)=O)n2)ccn1 [Compound 14a]

IC50 (PLK1(h)): > 10 µM
SMILES: NC(=O)c1nn(-c2ccnc(NC3CCNCC3)c2)cc1OCc1ccccc1 [Compound 9a]

IC50 (PLK1(h)): 0.847 µM
SMILES: NC(=O)c1nn(-c2ccnc(Nc3ccccc3)c2)cc1OCc1ccccc1C(F)(F)F [Compound 13b]

SMILES: O=Cc1n[nH]c2c1CCc1cnc(Nc3ccccc3)nc1-2 [compound 34]
IC50 (PLK1 [3]): 0.248 µM
Activity pIC50 (PLK1 [3]; pIC50 = −log IC50): 6.6055

IC50 (PLK1(h)): 9.89 µM
SMILES: NC(=O)c1nn(-c2ccnc(Nc3ccccc3)c2)cc1OCc1ccccc1 [Compound 13a]

SMILES: CN1CCN(c2ccc(C(=O)Nc3n[nH]c4c3CN(C(=O)Cc3cccs3)C4)cc2)CC1 [PHA-680626]
PLK1 IC50s (PLK1 [4]): low nanomolar
